Data as given in paper PMC4937797 (Antiviral research, 2016).
≈ marks a conversion by molar mass, not a printed value. Entries after “also recorded” stand apart in the source; their conditions may differ. Read-outs that look alike come from different tables or passages of the source.

Assays:
subgenomic RSV replicon [1] = conditions: read-out: Replicon EC50; assay validation; ref Tiong-Yip et al (2014); cited from earlier work
Aqueous solubility = type: physicochemical
subgenomic RSV replicon [2] = type: cell-based, Respiratory syncytial virus; conditions: for EC50: read-out: Replicon EC50, APC126-E RSV replicon cells, 48 hours, luminescence; for activity in the primary screen (RSV replicon), in words: 10 μM, HTS data
RSV A Long = type: cell-based, Respiratory syncytial virus; conditions: read-out: RSV Long EC50; Hep2 cells, CPE assay
LogD = type: physicochemical
RSV B Washington = type: cell-based, Respiratory syncytial virus; conditions: read-out: RSV B EC50, Hep2 cells, CPE assay
Plasma protein binding = type: in vitro ADME
Hepatic clearance = type: in vitro ADME
Microsomal stability = type: in vitro ADME; conditions: human liver microsomes
[3] = system: RSV N mutant (nucleoprotein mutations); type: cell-based, Respiratory syncytial virus; conditions: for EC50: read-out: N Mutant EC50, CPE assay, RSV604-resistant N mutant virus
[4] = system: RSV L mutant (Y1631H in L polymerase); type: cell-based, Respiratory syncytial virus; conditions: for EC50: read-out: L Mutant EC50
[5] = target: RSV polymerase (L/P complex) (Human respiratory syncytial virus A, UniProt P28887); assay: In vitro RNA synthesis assay with purified L/P complex; type: biochemical
hERG channel = hERG channel (Homo sapiens, UniProt Q12809); assay: hERG channel inhibition; type: biochemical
hERG channel, sequence (Q12809 whole entry): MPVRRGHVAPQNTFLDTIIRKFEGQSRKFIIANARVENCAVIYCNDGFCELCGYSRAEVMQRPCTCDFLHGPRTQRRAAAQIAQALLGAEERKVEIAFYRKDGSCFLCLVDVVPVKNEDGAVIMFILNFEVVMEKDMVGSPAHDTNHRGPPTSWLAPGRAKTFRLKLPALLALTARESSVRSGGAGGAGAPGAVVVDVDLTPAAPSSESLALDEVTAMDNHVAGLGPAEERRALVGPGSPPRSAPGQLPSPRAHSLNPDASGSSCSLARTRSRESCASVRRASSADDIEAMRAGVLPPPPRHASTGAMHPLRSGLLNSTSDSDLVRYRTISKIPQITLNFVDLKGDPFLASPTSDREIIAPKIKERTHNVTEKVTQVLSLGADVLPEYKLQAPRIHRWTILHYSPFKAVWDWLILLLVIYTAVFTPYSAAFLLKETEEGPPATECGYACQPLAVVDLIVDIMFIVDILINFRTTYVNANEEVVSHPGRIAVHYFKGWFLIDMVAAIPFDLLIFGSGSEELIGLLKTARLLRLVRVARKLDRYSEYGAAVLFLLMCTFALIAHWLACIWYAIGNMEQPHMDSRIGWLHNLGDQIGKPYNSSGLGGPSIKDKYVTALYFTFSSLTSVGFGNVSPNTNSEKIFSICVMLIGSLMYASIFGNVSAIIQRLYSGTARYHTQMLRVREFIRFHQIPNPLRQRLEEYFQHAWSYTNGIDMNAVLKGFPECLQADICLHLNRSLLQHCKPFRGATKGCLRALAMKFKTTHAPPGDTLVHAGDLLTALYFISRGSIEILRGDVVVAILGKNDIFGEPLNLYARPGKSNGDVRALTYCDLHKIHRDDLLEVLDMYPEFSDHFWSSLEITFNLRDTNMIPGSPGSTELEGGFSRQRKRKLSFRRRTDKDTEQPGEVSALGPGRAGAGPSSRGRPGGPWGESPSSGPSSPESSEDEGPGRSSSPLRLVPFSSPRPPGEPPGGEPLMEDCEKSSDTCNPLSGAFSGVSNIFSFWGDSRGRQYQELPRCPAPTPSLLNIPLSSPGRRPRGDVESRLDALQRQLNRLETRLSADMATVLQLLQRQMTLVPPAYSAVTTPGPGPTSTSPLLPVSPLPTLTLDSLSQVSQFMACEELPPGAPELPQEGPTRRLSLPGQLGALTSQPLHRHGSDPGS

RSV polymerase (L/P complex), sequence (P03421 whole entry): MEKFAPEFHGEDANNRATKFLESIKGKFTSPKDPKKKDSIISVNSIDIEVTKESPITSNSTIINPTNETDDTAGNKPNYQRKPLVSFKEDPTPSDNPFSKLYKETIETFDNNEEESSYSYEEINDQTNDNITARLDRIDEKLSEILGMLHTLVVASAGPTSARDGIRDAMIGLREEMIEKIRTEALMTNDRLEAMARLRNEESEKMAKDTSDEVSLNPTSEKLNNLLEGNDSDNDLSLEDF
RSV polymerase (L/P complex), sequence (P28887 whole entry): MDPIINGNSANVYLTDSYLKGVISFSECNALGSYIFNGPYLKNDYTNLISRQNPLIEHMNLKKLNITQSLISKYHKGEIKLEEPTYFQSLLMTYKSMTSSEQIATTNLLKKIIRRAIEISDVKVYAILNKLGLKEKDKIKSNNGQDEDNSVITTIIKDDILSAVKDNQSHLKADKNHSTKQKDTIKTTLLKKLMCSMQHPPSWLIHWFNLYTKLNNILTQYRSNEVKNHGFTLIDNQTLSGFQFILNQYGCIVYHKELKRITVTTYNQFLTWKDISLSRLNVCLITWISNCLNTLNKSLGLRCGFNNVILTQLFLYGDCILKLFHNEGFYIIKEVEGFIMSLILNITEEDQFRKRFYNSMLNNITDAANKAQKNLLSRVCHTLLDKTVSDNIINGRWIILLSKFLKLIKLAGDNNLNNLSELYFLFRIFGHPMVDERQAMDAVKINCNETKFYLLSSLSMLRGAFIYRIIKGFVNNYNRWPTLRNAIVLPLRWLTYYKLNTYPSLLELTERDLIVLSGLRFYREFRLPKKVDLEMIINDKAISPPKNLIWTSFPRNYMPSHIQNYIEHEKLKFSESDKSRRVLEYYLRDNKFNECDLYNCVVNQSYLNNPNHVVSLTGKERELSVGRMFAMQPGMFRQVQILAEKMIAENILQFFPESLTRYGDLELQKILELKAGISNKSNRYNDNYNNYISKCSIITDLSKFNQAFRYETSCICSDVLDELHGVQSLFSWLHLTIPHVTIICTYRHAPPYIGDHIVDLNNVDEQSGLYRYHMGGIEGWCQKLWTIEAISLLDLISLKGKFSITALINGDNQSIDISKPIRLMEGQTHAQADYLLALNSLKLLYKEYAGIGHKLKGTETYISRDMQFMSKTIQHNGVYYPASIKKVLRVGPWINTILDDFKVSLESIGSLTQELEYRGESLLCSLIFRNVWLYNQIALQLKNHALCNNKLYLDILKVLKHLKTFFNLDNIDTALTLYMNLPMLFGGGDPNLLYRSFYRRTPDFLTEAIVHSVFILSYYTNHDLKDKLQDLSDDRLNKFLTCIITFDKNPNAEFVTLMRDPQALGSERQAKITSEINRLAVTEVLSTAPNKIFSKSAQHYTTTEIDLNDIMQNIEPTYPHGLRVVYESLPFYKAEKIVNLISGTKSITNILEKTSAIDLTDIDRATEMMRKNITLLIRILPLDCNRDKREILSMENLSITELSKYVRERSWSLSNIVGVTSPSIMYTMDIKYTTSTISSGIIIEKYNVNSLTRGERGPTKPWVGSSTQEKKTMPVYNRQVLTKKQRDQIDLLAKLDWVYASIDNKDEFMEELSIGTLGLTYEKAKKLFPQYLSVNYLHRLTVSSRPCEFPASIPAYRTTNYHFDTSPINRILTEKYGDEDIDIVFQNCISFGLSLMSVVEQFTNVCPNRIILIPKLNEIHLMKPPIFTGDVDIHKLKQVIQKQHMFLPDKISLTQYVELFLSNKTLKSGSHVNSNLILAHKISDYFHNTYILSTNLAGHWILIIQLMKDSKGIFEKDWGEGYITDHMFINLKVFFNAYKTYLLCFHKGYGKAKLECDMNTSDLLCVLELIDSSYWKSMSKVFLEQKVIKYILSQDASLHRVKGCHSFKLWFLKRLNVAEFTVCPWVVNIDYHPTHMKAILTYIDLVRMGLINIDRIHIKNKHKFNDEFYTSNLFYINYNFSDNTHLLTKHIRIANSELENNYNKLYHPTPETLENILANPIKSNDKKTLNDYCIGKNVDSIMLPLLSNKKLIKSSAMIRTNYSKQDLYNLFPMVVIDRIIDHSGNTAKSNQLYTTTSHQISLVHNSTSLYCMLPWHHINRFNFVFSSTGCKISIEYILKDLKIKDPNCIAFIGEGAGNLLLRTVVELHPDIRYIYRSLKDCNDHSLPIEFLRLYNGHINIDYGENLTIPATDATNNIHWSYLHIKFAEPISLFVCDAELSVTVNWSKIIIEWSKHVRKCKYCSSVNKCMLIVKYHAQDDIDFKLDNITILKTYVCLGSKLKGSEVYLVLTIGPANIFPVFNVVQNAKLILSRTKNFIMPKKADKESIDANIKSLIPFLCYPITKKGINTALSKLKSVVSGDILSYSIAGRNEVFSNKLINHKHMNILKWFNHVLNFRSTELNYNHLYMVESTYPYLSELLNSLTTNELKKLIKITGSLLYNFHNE

| Compound | Solubility (Aqueous solubility) [µM] | EC50 (subgenomic RSV replicon [2]) [µM] | EC50 (RSV A Long) [µM] | LogD (LogD) | EC50 (RSV B Washington) [µM] | PPB (% free) (Plasma protein binding) | Rhep (Hepatic clearance) [μL/min/10^6 cells] | HLM (Microsomal stability) [µL/min/mg] | EC50 [3] [µM] | shift in activity against the L-mutant strain [4] | EC50 [4] [µM] | other results |
| --- | --- | --- | --- | --- | --- | --- | --- | --- | --- | --- | --- | --- |
| O=C(NC1CC1)c1cc2c(s1)-c1ccccc1N(C(=O)c1ccc(NC(=O)c3ccccc3-c3ccccc3)cc1)CC2 [YM53403] | – | – | – | – | – | – | – | – | – | – | – | EC50 (subgenomic RSV replicon [1]): 0.63 µM |
| COc1cc(CN2CC3(CCN(S(=O)(=O)c4cn(C)cn4)CC3)c3c(n(C)c4cc(OC)ccc34)[C@H]2CO)cc(OC)c1 [BRD3482] | 22 (≈ 13.4 µg/mL) | 7.2 | 1 | 2.9 | 4.7 | 3.8 | – | – | – | – | – | – |
| CN1c2ccc(-c3ccc(C#N)cc3)cc2[C@H]2[C@H](CCN2C(=O)c2cccc(F)c2)[C@@H]1CO [BRD4517] | – | 10.6 | 1.6 | – | 5.5 | – | – | – | – | – | – | – |
| NC(=O)c1ncn([C@@H]2O[C@H](CO)[C@@H](O)[C@H]2O)n1 [ribavirin] | – | – | – | – | – | – | – | – | – | – | – | EC50 (subgenomic RSV replicon [1]): 6.28 µM |
| COc1ccc2c3c([nH]c2c1)[C@H](CO)N(Cc1ccccc1)CC31CCN(C(=O)Cc2ccccc2)CC1 [BRD5449] | 16 (≈ 8.15 µg/mL) | 4.9 | 6.8 | >4.4 | > 50 | <1 | 194 | 465 | – | – | – | – |
| O=S(=O)(c1cccs1)N1CCCCN2[C@H](CO)[C@@H](c3ccc(/C=C/c4ccccc4)cc3)[C@@H]2C1 [BRD9101] | <1 | 4.3 | 1.7 | >4.8 | > 50 | <1 | 67.8 | 57.1 | 7.8 | greater than 15 fold | > 25 | % inhibition of the RSV replicon in the primary screen (subgenomic RSV replicon [2]; 10 uM, single concentration HTS): 70%; N Mutant fold shift ([3]; shift versus RSV A2 EC50): 4.6 x |
| Cc1cccc(-c2ccc([C@@H]3[C@@H](CO)N4CCCCN(S(=O)(=O)c5cn(C)cn5)C[C@@H]34)cc2)c1 [BRD3969] | 49 (≈ 23.6 µg/mL) | 4.2 | 3.9 | 3.6 | > 50 | 1.6 | 61.7 | 77.9 | 6.9 | greater than 6 fold | > 25 | effect on T7 RNA polymerase (input minigenome template) (T7 RNA polymerase): inhibited T7 RNA polymerase; activity in the primary screen (RSV replicon), in words (subgenomic RSV replicon [2]): weak but significant activity; effect on RSV RNA synthesis initiation or elongation in vitro ([5]; 1000 μM, data not shown): no effect; effect on in vitro RNA synthesis (de novo synthesis, back-priming) ([5]; concentrations up to 100 μM, 30 °C, 2 h): does not inhibit the ability of the polymerase to synthesize RNA; also recorded: no discernible effect; N Mutant fold shift [3]: 6.9 μM (1.8x); L Mutant fold shift [4]: > 25 μM (>6x); hERG (% inh at 11 μM) (hERG channel): 14% |
| Cn1cnc(S(=O)(=O)N2CCCCN3[C@H](CO)[C@@H](c4ccc(-c5ccc(F)cc5)cc4)[C@@H]3C2)c1 [BRD65768] | 121 (≈ 58.6 µg/mL) | 4.3 | 7.5 | 3.3 | > 50 | 2.1 | 23.6 | 41.2 | 13.1 | > 3 fold | > 25 | activity in the primary screen (RSV replicon), in words (subgenomic RSV replicon [2]): weak but significant activity; N Mutant fold shift ([3]; shift versus RSV A2 EC50): 2 x; L Mutant fold shift ([4]; shift versus RSV A2 EC50): > 4 x; hERG (% inh at 11 μM) (hERG channel): 18% |
